Measured values as given in the OligoGym collection.
Bases are written 5' to 3'; sugars and linkages follow in the same order, as letters with counts (s phosphorothioate, o phosphodiester; PS: all linkages phosphorothioate). The collection does not say whether C is 5-methylated. l = locked nucleic acid (LNA); d = 2'-deoxy (DNA)

biological target: Tau; experiment: rat primary cortical neurons, FLIPR, 25 uM ASO

Going from “AATTCACACAACAAACTAT (sugars l4 d11 l4, PS)” to “AATTCATAAATGACTATACT (sugars l3 d14 l3, PS)”, the calcium oscillation score falls from 74.5 % of control to 40.3 % of control.

Going from “AATTCATTTAATTCTCTTCT (sugars l4 d12 l4, PS)” to “AATTTACACCCAAACCTA (sugars l2 d12 l4, PS)”, the calcium oscillation score falls from 86.6 % of control to 81.9 % of control.

First: AATTTACACCCAAACCTAA (sugars l4 d11 l4, PS)
Second: AATTTAGTCACCATCA (sugars l4 d8 l4, PS)
The calcium oscillation score of the first is higher: 106 % of control for the first, 62.1 % of control for the second.

Going from AATTTAGTCACCATCAC (sugars l4 d9 l4, PS) to “AATTTATTAATTCATAAATG (sugars l3 d14 l3, PS)”, the calcium oscillation score falls from 79.1 % of control to 38.3 % of control.

First: AATTTCACCCTCAGTA (sugars l3 d10 l3, PS)
Second: AATTTCAGAGCAAAGTGACC (sugars l3 d14 l3, PS)
The calcium oscillation score of the first is higher: 73 % of control for the first, 2.38 % of control for the second.

Compared with AATTTCTCTAATTGTCC (sugars l4 d9 l4, PS), “AATTTGGAAAGATGAAATTT (sugars l3 d14 l3, PS)” is lower in calcium oscillation score: 69 % of control for the first, 0 % of control for the second.

Compared with “ACAAACAATCCATTTATAT (sugars l4 d11 l4, PS)”, “ACAAACATCTAAACACCTCA (sugars l2 d14 l4, PS)” is higher in calcium oscillation score: 46.2 % of control for the first, 72.6 % of control for the second.

Going from “ACAAACCAACTCAACATTAC (sugars l4 d12 l4, PS)” to “ACAAACCAGTTACCATC (sugars l3 d10 l4, PS)”, the calcium oscillation score rises from 84.6 % of control to 87.7 % of control.

Compared with “ACAACAAACATCTAAACACC (sugars l3 d13 l4, PS)”, “ACAATTCTCAGCACACC (sugars l2 d11 l4, PS)” is lower in calcium oscillation score: 84.5 % of control for the first, 48.8 % of control for the second.

Compared with “ACACCATCCAAGTCAAT (sugars l3 d10 l4, PS)”, “ACACCTCGTCAGCTAGCGTG (sugars l3 d14 l3, PS)” is lower in calcium oscillation score: 16.2 % of control for the first, 0 % of control for the second.

First: ACACTGTCCTTTAAACA (sugars l4 d10 l3, PS)
Second: ACACTGTCGTCGAATG (sugars l3 d10 l3, PS)
The calcium oscillation score of the first is higher: 68.1 % of control for the first, 9.52 % of control for the second.

Going from “ACAGATATTCATTCCCT (sugars l4 d11 l2, PS)” to “ACAGCCATTTTCCATAT (sugars l3 d11 l3, PS)”, the calcium oscillation score rises from 44.2 % of control to 59.3 % of control.

First: ACAGCCTCATAAACCT (sugars l4 d10 l2, PS)
Second: ACAGCCTCATAAACCTA (sugars l3 d11 l3, PS)
The calcium oscillation score of the first is higher: 66.8 % of control for the first, 59.4 % of control for the second.

First: ACAGGAGAGCCATTTCCCAA (sugars l3 d14 l3, PS)
Second: ACATCCTGCCATACCA (sugars l3 d11 l2, PS)
The calcium oscillation score of the first is lower: 42.9 % of control for the first, 45 % of control for the second.

Compared with “ACATCTAAACACCTCAATCC (sugars l2 d15 l3, PS)”, ACATCTCTCTAGACAT (sugars l4 d9 l3, PS) is lower in calcium oscillation score: 73.2 % of control for the first, 59.5 % of control for the second.

First: ACATCTCTCTAGACATC (sugars l4 d10 l3, PS)
Second: ACATGCTAATCAATAC (sugars l4 d8 l4, PS)
The calcium oscillation score of the first is higher: 68.4 % of control for the first, 57.8 % of control for the second.

Compared with ACATTCTATACTTCAG (sugars l4 d8 l4, PS), “ACCAACTTTCATCTACTTTT (sugars l3 d15 l2, PS)” is higher in calcium oscillation score: 71.4 % of control for the first, 90.5 % of control for the second.

First: ACCAATTAACCGAACT (sugars l3 d10 l3, PS)
Second: ACCAATTAACCGAACTGCGA (sugars l3 d14 l3, PS)
The calcium oscillation score of the first is higher: 159 % of control for the first, 22.6 % of control for the second.

Compared with “ACCAATTATCTTTAAATTCT (sugars l4 d13 l3, PS)”, “ACCACACACTCTGATAC (sugars l4 d11 l2, PS)” is lower in calcium oscillation score: 77 % of control for the first, 69 % of control for the second.

Compared with “ACCACATTATCATCCATT (sugars l2 d12 l4, PS)”, “ACCACATTATCATCCATTC (sugars l2 d14 l3, PS)” is lower in calcium oscillation score: 55.7 % of control for the first, 51.9 % of control for the second.

Compared with “ACCACATTATCATCCATTCT (sugars l3 d14 l3, PS)”, “ACCACCTCATTAAGATC (sugars l4 d11 l2, PS)” is higher in calcium oscillation score: 32.2 % of control for the first, 58.3 % of control for the second.

Compared with “ACCACTGGCGACTTGTACAC (sugars l3 d14 l3, PS)”, “ACCAGCTAGTGGTGCCACCT (sugars l3 d14 l3, PS)” is higher in calcium oscillation score: 5.18 % of control for the first, 20.2 % of control for the second.

Going from “ACCAGTTACCATCATAC (sugars l4 d11 l2, PS)” to ACCATCATACTCCAAG (sugars l4 d9 l3, PS), the calcium oscillation score falls from 93.2 % of control to 76 % of control.

Compared with “ACCATCATACTCCAAGT (sugars l3 d12 l2, PS)”, “ACCATCCAAGTCAATGCCTG (sugars l3 d14 l3, PS)” is lower in calcium oscillation score: 77.7 % of control for the first, 4.03 % of control for the second.

Going from ACCATGATCTTAGGCT (sugars l3 d10 l3, PS) to “ACCATTAACTGCCTATT (sugars l4 d11 l2, PS)”, the calcium oscillation score falls from 87.8 % of control to 50.5 % of control.

Going from ACCCAATCTTCGACTG (sugars l3 d10 l3, PS) to “ACCCACTTTCCTAATTCCCA (sugars l1 d17 l2, PS)”, the calcium oscillation score rises from 43.4 % of control to 76.6 % of control.

Compared with “ACCCATCAATTTGGAAAGAT (sugars l3 d14 l3, PS)”, “ACCCATCCCACAAAGAACAG (sugars l3 d14 l3, PS)” is lower in calcium oscillation score: 72.6 % of control for the first, 34.2 % of control for the second.
